This note sets out measurements from patent US12673063B2, “Methods and materials for treatment of fibrosis” (Massachusetts Eye and Ear Infirmary, priority 2020, dated 2026).

The test system of data set [1] is FURIN mRNA in HMEC-Ls. Description: FURIN mRNA, qPCR, TNF-α-stimulated HMEC-Ls. Type of data set: cell-based, human. As to conditions: TNF-α 5 ng/ml.
Data set [2] has as its system A549 cells. Kind of data set: CyQUANT Direct Cell Proliferation Assay, A549. Type of data set: cell-based, human. The protocol:
Human type II alveolar epithelial cells (A549) were a generous gift from Dr. Lagares (Mass General Hospital). Cells were maintained in low glucose-DMEM containing 10% FBS, 2 mM L-glutamine, 100 U/ml penicillin and 100 μg/ml streptomycin at 37° C. in a humidified 5% C02 atmosphere. Confluent cultures of cells were pretreated with Ro24-7429 for 24 hours followed by stimulation with 5 ng/ml of TGF-β1.
(§1) We tested the effect of RUNX1 inhibition on the proliferation of a human alveolar basal epithelial cell line (A549), primary human-derived pulmonary alveolar epithelial cells (HPAEpi), and in human-derived primary culture lung fibroblasts (HLF). For specific analyses we used escalating doses of Ro24-7429 (50-200 μM), Ro5-3335 (150 μM), pirfenidone (500 μg/ml) and nintedanib (5 μM), the latter two are currently approved drugs for IPF.

Data set [3] relates to RUNX1 and fibrosis markers in lung tissue. Description: Expression of RUNX1 and fibrosis markers in bleomycin-injured lung (Western blot, qRT-PCR, immunostaining). Type of data set: in vivo, C57BL/6J mice. The protocol: (§2) Bleomycin sulphate (Sigma-Aldrich) was dissolved in sterile 0.9% saline and administered as a single dose of 0.05 units in a total volume of 50 μl in saline solution per animal intratracheally (IT). Control animals received 0.05 mL saline alone. A preventative regimen was chosen and each animal received either Ro24-7429 drug 70 mg/kg or vehicle every other day 7 days before the induction of the model and continued until the end of the experiment for 1 week or 2 weeks. All animals received intratracheal instillations of either bleomycin on day 0 as previously described (52-55). A separate experiment was performed with similar drug-vehicle treatments and IT saline instillation for controls. The surgeon performing IT instillations was masked to the identity of the treatment groups.
Paraffin embedded sections were processed for immunofluorescence using the following antibodies: anti-RUNX1 (1:100; LS-B13948; Lifespan Biosciences, Seattle, WA), anti-human a-SMA antibody (1:200; NB500-170; Novus Biologicals, Ontario, Canada), anti-Iba1 antibody (1:100; ab5076; Abcam, Cambridge, United Kingdom), anti-Ly6g antibody (1:100; ab25377; Abcam, Cambridge, United Kingdom), and Isolectin GS-IB4 Alexa Fluoro 594 Conjugate (1:250; 121413; Invitrogen, Carlsbad, CA). For heat-induced antigen retrieval the slides were boiled in 10 mM sodium citrate buffer (pH 6.0) and then maintained at a sub-boiling temperature (95-100° C.) for 20 minutes and subsequently cooled on the bench top for 30 minutes. Slides were washed with distilled water and permeabilized with 0.5% Triton X-100 in PBS for 5 minutes and blocked (10% goat serum in PBS) for 1 hour at RT. The primary antibody was prepared in antibody dilution buffer (5% goat serum) and samples were incubated overnight with the antibody solution at 4° C. Sections were washed with PBS and incubated with goat anti-rabbit Alexa Fluor 594 secondary antibody (1:500; A-11012; Invitrogen, Carlsbad, CA) for 2 hours at room temperature. Slides were mounted and visualized using Prolong Gold Antifade Reagent with DAPI (P36935, Invitrogen). Images were obtained using an EVOS FL automated stage live cell imaging system (Life Technologies, Cambridge, MA).
Protein concentration was determined by Pierce Bicinchonic acid (BCA) protein assay kit (ThermoFisher; 23227) according to the manufacturer's instructions. 20 μg of total cell lysates were prepared in 4 μL 1M 1,4-dithiothreitol (DTT; Sigma Aldrich) and 10 μL Laemmli buffer (Boston Bioproducts) to a final volume of 40 μL and denatured 5 min at 90° C. Samples were separated electrophoretically for 1 h at 70 V using 4-20% pre-cast gradient gels (Mini-PROTEAN TGX, Bio-Rad) and SDS-Tris-Glycine buffer (Bio-rad). Proteins were transferred to 0.45 μm nitrocellulose membranes for 1 h at 70 V in ice cold […] Tris-Glycine buffer (Bio-rad). Membranes were blocked for 1 h with Odyssey Blocking Buffer (LI-COR Biosciences). Then incubated with primary antibodies for 3 hours RT or overnight at 4 degrees Celsius and then washed 3× with TBS-T and incubated with secondary antibodies IRDye 800CW donkey anti-mouse for 1 hour and washed 3× with TBS-T.
Mice were treated as described previously before euthanasia. Lung samples were collected for qRT-PCR analysis and tissues lysed by homogenization. RNA was extracted using RNeasy Mini Kits (QIAGEN), as per the manufacturer's instructions for tissue samples. Transcription into complementary DNA and analysis were performed as stated previously. Primers for selected genes (Table 1) were purchased from Integrated DNA Technologies (Coralville, IA, USA).

Data set [4] deals with human lung fibroblasts (HLF). Kind of data set: CyQUANT Direct Cell Proliferation Assay, HLF. It is filed as cell-based. As to conditions: 72 hours.
Description: as §1, with “We conducted mechanistic studies in cell culture to examine the cellular and molecular mechanisms underlying the robust effects of RUNX1 inhibition in the protection against bleomycin-induced lung injury. We” for “We”

The test system of data set [5] is bleomycin-induced inflammation. Kind of data set: Bleomycin-induced lung inflammation, infiltration of neutrophils and macrophages. Type of data set: in vivo, C57BL/6J mice. Particulars: 1-week and 2-week time points. The protocol:
as §2
Paraffin embedded sections were processed for immunofluorescence using the following antibodies: anti-RUNX1 (1:100; LS-B13948; Lifespan Biosciences, Seattle, WA), anti-human a-SMA antibody (1:200; NB500-170; Novus Biologicals, Ontario, Canada), anti-Iba1 antibody (1:100; ab5076; Abcam, Cambridge, United Kingdom), anti-Ly6g antibody (1:100; ab25377; Abcam, Cambridge, United Kingdom), and Isolectin GS-IB4 Alexa Fluoro 594 Conjugate (1:250; 121413; Invitrogen, Carlsbad, CA). […]
We evaluated the potential effect of Ro24-7429 on bleomycin-induced inflammation 1 week and 2 weeks after lung injury (FIGS. 1I-J and 2).

In data set [6] the test system is ACE2 and FURIN in lung tissue. Kind of data set: ACE2 staining and FURIN protein in bleomycin-injured lung. Type of data set: in vivo, C57BL/6J mice. Here is the method:
as §2, with “groups. […]” for “groups.”
Protein concentration was determined by Pierce Bicinchonic acid (BCA) protein assay kit (ThermoFisher; 23227) according to the manufacturer's instructions. […]
Additionally, we studied the effect of RUNX1 inhibition on the expression of ACE2 expression in TGF-β1 and TNF-α stimulated HPAEpi cells. […] FURIN protein levels were also observed to go down by 70% in the Ro24-7429 treated mice as evaluated by Western blot (FIGS. 4E-F).

In data set [7] the test system is RUNX1 mRNA in HMEC-Ls. Kind of data set: TNF-α-induced RUNX1 mRNA, qRT-PCR, HMEC-Ls. Type of data set: cell-based, human. Particulars: 75 μM, TNF-α 5 ng/ml, 48 hours. For orientation: Real-time PCR tracks product formation cycle by cycle.
Data set [8] deals with human lung fibroblasts (HLF). Description: Lactate dehydrogenase (LDH) cell death assay, HLF. It is filed as cell-based. As to conditions: Ro24-7429 50-200 μM, Ro5-3335 150 μM.
Description: as §1, with “We conducted mechanistic studies in cell culture to examine the cellular and molecular mechanisms underlying the robust effects of RUNX1 inhibition in the protection against bleomycin-induced lung injury. We” for “We”

Setting [9] is: bleomycin mice, lung tissue, day 14.

SMILES strings stand for the structures.

For `CNC1=Nc2ccc(Cl)cc2C(c2ccc[nH]2)=NC1` [Ro24-7429, 3H-1,4-Benzodiazepin-2-amine, 7-chloro-N-methyl-5-(1H-pyrrol-2-yl)-], the “reduction of FURIN mRNA expression” value in data set [1] is reported as 70%. Also, the “percent live cells compared to vehicle treated” value in data set [2] (48 hours, Ro5-3335 150 μM, Ro24-7429 50 μM-200 μM, Pirfenidone 500 μg/ml, Nintedanib 5 μM) was “significant reduction”. Further, the reduction in proliferation is listed as 62% in data set [2] (A549, 48 hours, 50 μM); 68% in data set [2] (A549, 48 hours, 200 μM); 82% in data set [2] (A549, 72 hours, 200 μM); 30% in data set [4] (50 μM); 55% in data set [4] (200 μM). In addition, in data set [3] (70 mg/kg, bleomycin mice), the α-SMA immunostaining localization result was “localized only to vessels”. Also, in data set [3] (setting [9]), the “expression of E-Cadherin, Western blot” value was “preserved”. In data set [3] (setting [9]), the “expression of RUNX1, Western blot” value is “reduced”. Besides, in data set [3] (setting [9]), the “expression of fibronectin, Western blot” value is on record as “reduced”. Besides, the “RUNX1 upregulation, immunofluorescence and qRT-PCR” value in data set [3] (bleomycin-injured mice, day 14) was “significantly attenuated”. Further, the “upregulation of fibrosis markers triggered by bleomycin” value in data set [3] (compared to vehicle treated mice, day 14) was “blunted”. Also, the “infiltration of inflammatory cells, neutrophils and macrophages” value in data set [5] is given as “reduced infiltration”. Further, in data set [6] (bleomycin mice lungs, Western blot), the “decrease of FURIN protein levels” value is given as 70%. In data set [6] (bleomycin mouse model, 2-week time point, immunofluorescence), the “ACE2 staining in the lung” value was “markedly reduced”. The “reduction of TNF-α-induced upregulation of RUNX1 mRNA” value in data set [7] turned out to be 50%. Moreover, the “cell death by LDH analysis” value in data set [8] is on record as “Very low levels of cell death”.
